These results are taken from patent publication US4525348A, “Pranoprofen gelled ointment” (priority 1983, dated 1985).

The conditions of data set [1]: oral administration, as compared with indomethacin or other nonsteroid agents; cited from earlier work.
A short description of data set [2]: Percutaneous absorption and excretion (Experiment 8). The note with it: rat. An excerpt:
Male Donryu rats weighing 120-140 g were divided into groups of 4 animals each. The backs of the rats were shaved with an electric clipper and an electric shaver. […] After this application, the test ointment remaining was wiped off at a set time with absorbent cotton moistened with 50% ethanol. The contained ^14 C was eluted with methanol and determined by conventional methods.

With `CC(C(=O)O)c1ccc2c(c1)Cc1cccnc1O2` (stereo not drawn) [pranoprofen], the “Adverse effects such as gastroenteric disorders” value in data set [1] was “very rarely”. Moreover, the “Half life of disappearance from blood” value in data set [2] (absorbed pranoprofen, topical) was “about 5 hours”. Moreover, the Excretion route entry in data set [2] (in vivo) was “excreted mainly into urine and feces”.
